Source: US7741281B2, “Hepatitis C virus inhibitors” (Bristol-Myers Squibb Company, priority 2005, dated 2010)

Tests used:
[1] = biological target: T1, porcine pancreatic elastase (PPE) (Sus scrofa, UniProt P00772); assay: Specificity assay, porcine pancreatic elastase (pNA substrate); format: biochemical; details: read-out: PPE activity in the specificity assays (IC50)
T1 construct: purchased Sigma or EMDbiosciences
Procedure: The specificities of compounds of the present disclosure were determined against a variety of serine proteases: human neutrophil elastase (HNE), porcine pancreatic elastase (PPE) and human pancreatic chymotrypsin and one cysteine protease: human liver cathepsin B. In all cases, a 96-well plate format protocol using colorimetric p-nitroaniline (pNA) substrate or fluorometric Amino-Methyl-Coumarin (AMC) substrate, specific for each enzyme was used as described previously (PCT Patent Application No. WO 00/09543) with some modifications. All enzymes were purchased from Sigma or EMDbiosciences while the substrates were from Bachem.
Each pNA assay included a 2 h enzyme-inhibitor pre-incubation at room temperature followed by addition of substrate and hydrolysis to ˜15% conversion as measured on a Spectramax Pro microplate reader. The cathepsin B assay was initiated by adding substrate to a 10 min enzyme-inhibitor pre-incubation at room temperature, and the assay plate measured immediately using the Cytofluor Series 4000. Compound concentrations varied from 100 to 0.4 μM depending on their potency.
The final conditions for each assay were as follows: […]
The percentage of inhibition was calculated using the formula: [1−((UVinh−UVblank)/(UVctl−UVblank))]×100 […]

[2] = biological target: T2, HCV NS3/4A protease complex, J4L6S strain (Hepatitis C virus genotype 1b, UniProt O92972, C1454S/C1711G); assay: FRET peptide assay to monitor HCV NS3/4A proteolytic activity (J4L6S strain); format: biochemical, HCV genotype 1b
T2 construct: recombinant HCV NS3/4A protease complex (amino acids 1027 to 1711) for these strains; His tag (inferred from pET21b vector and Ni-NTA purification); made in house; host or cells: Escherichia coli BL21 (DE3), pET21b
From the text: HCV NS3 protease complexes, derived from the BMS strain, H77 strain or J4L6S strain, were generated, as described below. These purified recombinant proteins were generated for use in a homogeneous assay (see below) to provide an indication of how effective compounds of the present disclosure would be in inhibiting HCV NS3 proteolytic activity.
Serum from an HCV-infected patient was obtained from Dr. T. Wright, San Francisco Hospital. An engineered full-length cDNA (compliment deoxyribonucleic acid) template of the HCV genome (BMS strain) was constructed from DNA fragments obtained by reverse transcription-PCR (RT-PCR) of serum RNA (ribonucleic acid) and using primers selected on the basis of homology between other genotype 1a strains. From the determination of the entire genome sequence, a genotype 1a was assigned to the HCV isolate according to the classification of Simmonds et al. (See P Simmonds, K A Rose, S Graham, S W Chan, F McOmish, B C Dow, E A Follett, P L Yap and H Marsden, J. Clin. Microbiol., 31(6), 1493-1503 (1993)). […]

T2 sequence (O92972 1027-1711 C1454S/C1711G, one chain of several): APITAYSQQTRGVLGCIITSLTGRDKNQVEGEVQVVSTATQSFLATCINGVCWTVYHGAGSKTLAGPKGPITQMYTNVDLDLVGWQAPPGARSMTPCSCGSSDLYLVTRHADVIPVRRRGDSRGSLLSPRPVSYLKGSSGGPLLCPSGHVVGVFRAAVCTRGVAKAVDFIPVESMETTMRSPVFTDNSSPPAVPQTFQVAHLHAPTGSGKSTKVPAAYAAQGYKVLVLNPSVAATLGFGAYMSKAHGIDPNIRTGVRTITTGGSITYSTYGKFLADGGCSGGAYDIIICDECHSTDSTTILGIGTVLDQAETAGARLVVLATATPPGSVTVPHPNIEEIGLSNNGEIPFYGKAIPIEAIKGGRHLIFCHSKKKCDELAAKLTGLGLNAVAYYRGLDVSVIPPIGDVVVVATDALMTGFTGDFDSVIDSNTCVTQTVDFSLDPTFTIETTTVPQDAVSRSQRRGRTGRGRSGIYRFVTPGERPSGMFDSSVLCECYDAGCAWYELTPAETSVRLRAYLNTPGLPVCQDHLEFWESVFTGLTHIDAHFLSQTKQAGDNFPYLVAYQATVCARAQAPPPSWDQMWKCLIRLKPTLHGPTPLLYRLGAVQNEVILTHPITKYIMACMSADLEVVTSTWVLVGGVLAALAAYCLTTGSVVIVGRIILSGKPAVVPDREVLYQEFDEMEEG
T1 sequence (P00772 27-266): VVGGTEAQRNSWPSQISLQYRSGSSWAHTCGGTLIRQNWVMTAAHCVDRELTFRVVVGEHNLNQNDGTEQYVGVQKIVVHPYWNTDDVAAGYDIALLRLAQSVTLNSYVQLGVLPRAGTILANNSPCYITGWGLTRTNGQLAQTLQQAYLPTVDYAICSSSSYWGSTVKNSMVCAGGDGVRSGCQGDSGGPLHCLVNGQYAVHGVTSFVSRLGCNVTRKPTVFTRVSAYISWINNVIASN

`COc1c(O[C@@H]2C[C@H]3C(=O)N[C@]4(C(=O)NS(=O)(=O)C5CC5)C[C@H]4/C=C\CCCCC[C@H](NC(=O)OC(C)(C)C)C(=O)N3C2)ccc2c(Cl)nccc12` [Compound 3] was tested, and the IC50 [1] was > 100000 nM and the IC50 [2] was 0.47 nM.
